Assay results from PubChem BioAssay AID330 (DTP/NCI, 2004).
Where “and” joins values, the source holds several entries; their conditions need not be identical. Equal values may be shown once. Toxic doses and inconclusive results are not listed. Square brackets hold non-standard residues; d marks the D form. Peptide text beside a SMILES is read from it. pGlu = O=C1CC[CH](C(=O)O)N1

Tested on: P388 leukemia ip, CD2F1 mice, survival T/C
Assay: NCI In Vivo Anticancer Drug Screen. Data for tumor model P388 Leukemia (intraperitoneal) in CD2F1 (CDF1) mice
Conditions: endpoint: median survival time, higher = longer survival
Outline: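 Mice carrying the transplanted tumor received test compound or vehicle. Survival was recorded in each group, and the value is the treated-group measurement divided by that of the vehicle-treated control group.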

[1] = dose: 60.0 mg/kg/injection, schedule: Q01DX005 (ip), vehicle: saline with Tween-80
[2] = dose: 120.0 mg/kg/injection, schedule: Q01DX005 (ip), vehicle: saline with Tween-80
[3] = dose: 240.0 mg/kg/injection, schedule: Q01DX005 (ip), vehicle: saline with Tween-80
[4] = dose: 50.0 mg/kg/injection, schedule: Q01DX005 (ip), vehicle: saline with Tween-80
[5] = dose: 100.0 mg/kg/injection, schedule: Q01DX005 (ip), vehicle: saline with Tween-80
[6] = dose: 200.0 mg/kg/injection, schedule: Q01DX005 (ip), vehicle: saline with Tween-80
[7] = dose: 6.25 mg/kg/injection, schedule: Q01DX009 (ip), vehicle: saline with Tween-80
[8] = dose: 12.5 mg/kg/injection, schedule: Q01DX009 (ip), vehicle: saline with Tween-80
[9] = dose: 25.0 mg/kg/injection, schedule: Q01DX009 (ip), vehicle: saline with Tween-80
[10] = dose: 50.0 mg/kg/injection, schedule: Q01DX009 (ip), vehicle: saline with Tween-80
[11] = dose: 6.25 mg/kg/injection, schedule: Q01DX005 (ip), vehicle: saline with Tween-80
[12] = dose: 3.13 mg/kg/injection, schedule: Q01DX009 (ip), vehicle: saline with Tween-80
[13] = dose: 12.5 mg/kg/injection, schedule: Q01DX009 (ip), vehicle: saline
[14] = dose: 25.0 mg/kg/injection, schedule: Q01DX009 (ip), vehicle: saline
[15] = dose: 100.0 mg/kg/injection, schedule: Q04DX003 (ip), vehicle: saline
[16] = dose: 200.0 mg/kg/injection, schedule: Q04DX003 (ip), vehicle: saline
[17] = dose: 400.0 mg/kg/injection, schedule: Q04DX003 (ip), vehicle: saline
[18] = dose: 50.0 mg/kg/injection, schedule: Q01DX009 (ip), vehicle: saline
[19] = dose: 100.0 mg/kg/injection, schedule: Q01DX009 (ip), vehicle: saline
[20] = dose: 200.0 mg/kg/injection, schedule: Q01DX009 (ip), vehicle: saline

In the case of `COc1cc2c(cc1OC)/C(=N/N=C1\CCCc3cc(OC)c(OC)cc31)CCC2`, the T/C (dose: 6.25 mg/kg/injection, schedule: Q01DX009 (ip), vehicle: other) is reported as 93 % of control, the T/C (dose: 6.25 mg/kg/injection, schedule: Q01DX009 (ip), vehicle: water) is reported as 98 % of control and the T/C (dose: 12.5 mg/kg/injection, schedule: Q01DX009 (ip), vehicle: other) is reported as 92 % of control. For the same compound, the T/C (dose: 12.5 mg/kg/injection, schedule: Q01DX009 (ip), vehicle: water) was 86 % of control, the T/C (dose: 25.0 mg/kg/injection, schedule: Q01DX009 (ip), vehicle: other) was 92 % of control and the T/C (dose: 25.0 mg/kg/injection, schedule: Q01DX009 (ip), vehicle: water) was 86 % of control. For the same compound, the T/C (dose: 50.0 mg/kg/injection, schedule: Q01DX009 (ip), vehicle: other) was 90 % of control, the T/C (dose: 100.0 mg/kg/injection, schedule: Q01DX009 (ip), vehicle: other) was 88 % of control and the T/C (dose: 100.0 mg/kg/injection, schedule: Q01DX009 (ip), vehicle: water) was 91 % of control.

In the case of `CC(C)(C)c1ccc(C(=O)n2c(=S)oc3ccc(Cl)cc32)cc1`, the T/C [1] is reported as 96 % of control, the T/C [2] is reported as 95 % of control and the T/C [3] is reported as 94 % of control.

With `O=C1OC(c2ccccc2)(c2ccc(Cl)cc2)CC1/C=C(\c1ccccc1)c1ccc(Cl)cc1` (configuration not stated) the T/C [4] was 96 % of control, the T/C [5] was 90 % of control and the T/C [6] was 91 % of control.

`O=[N+]([O-])c1ccc(N2CCN(c3ccccc3)CC2)c2nonc12` was tested, and the T/C (dose: 50.0 mg/kg/injection, schedule: Q01DX009 (ip), vehicle: suspension in saline) was 100 % of control, the T/C (dose: 100.0 mg/kg/injection, schedule: Q01DX009 (ip), vehicle: suspension in saline) was 99 % of control and the T/C (dose: 200.0 mg/kg/injection, schedule: Q01DX009 (ip), vehicle: suspension in saline) was 99 % of control and 100 % of control.

For `CSC(CNC(=O)N(CCCl)N=O)n1cc(F)c(=O)[nH]c1=O` (configuration not stated), the T/C (dose: 3.12 mg/kg/injection, schedule: Q04DX003 (ip), vehicle: saline with Tween-80) was 161 % of control, the T/C (dose: 6.25 mg/kg/injection, schedule: Q04DX003 (ip), vehicle: saline with Tween-80) was 158 % of control and 171 % of control and the T/C (dose: 12.5 mg/kg/injection, schedule: Q04DX003 (ip), vehicle: saline with Tween-80) was 220 % of control and 264 % of control. The T/C (dose: 25.0 mg/kg/injection, schedule: Q04DX003 (ip), vehicle: saline with Tween-80) was 266 % of control and 285 % of control, the T/C (dose: 50.0 mg/kg/injection, schedule: Q04DX003 (ip), vehicle: saline with Tween-80) was 275 % of control and 285 % of control and the T/C (dose: 100.0 mg/kg/injection, schedule: Q04DX003 (ip), vehicle: saline with Tween-80) was 110 % of control and 123 % of control.

With `COc1ccc(C(=O)/C=C/c2ccc(OCc3ccccc3)cc2)c(OC)c1` the T/C [7] was 99 % of control, the T/C [8] was 93 % of control and the T/C [9] was 91 % of control.

In the case of `NC1=NC(c2c3ccccc3cc3ccccc23)N=C(Nc2cccc(Cl)c2)N1` (configuration not stated), the T/C [7] is reported as 107 % of control, the T/C [8] is reported as 114 % of control and the T/C [10] is reported as 95 % of control.

With `CC1(C(N)=O)CCSc2ccccc2C1=O` (configuration not stated) the T/C [4] was 95 % of control, the T/C [5] was 92 % of control and the T/C [6] was 94 % of control.

With `O=[N+]([O-])c1cnccc1-n1nnc2ccccc21` the T/C [1] was 96 % of control, the T/C [2] was 96 % of control and the T/C [3] was 104 % of control.

In the case of `CCOc1ccc(C(C)c2cc3c(cc2OCC)OCO3)c(C)c1` (configuration not stated), the T/C (dose: 50.0 mg/kg/injection, schedule: Q01DX005 (ip), vehicle: Klucel (hydroxypropylcellulose) (HPC)) is reported as 109 % of control, the T/C (dose: 100.0 mg/kg/injection, schedule: Q01DX005 (ip), vehicle: Klucel (hydroxypropylcellulose) (HPC)) is reported as 103 % of control and the T/C (dose: 200.0 mg/kg/injection, schedule: Q01DX005 (ip), vehicle: Klucel (hydroxypropylcellulose) (HPC)) is reported as 112 % of control.

For `O=[N+]([O-])c1ccc(N(CCO)CCO)c2c1no[n+]2[O-]`, the T/C (dose: 3.12 mg/kg/injection, schedule: Q01DX005 (ip), vehicle: saline with Tween-80) was 117 % of control, the T/C [11] was 122 % of control and the T/C (dose: 8.0 mg/kg/injection, schedule: Q04DX003 (ip), vehicle: saline) was 111 % of control. The T/C (dose: 16.0 mg/kg/injection, schedule: Q04DX003 (ip), vehicle: saline) was 121 % of control.

In the case of `O=P(N1CC1)(N1CC1)N1CC2CCC(CC2)C1`, the T/C [12] is reported as 109 % of control, the T/C [7] is reported as 154 % of control and the T/C [8] is reported as 204 % of control. For the same compound, the T/C [13] was 159 % of control, the T/C (dose: 12.5 mg/kg/injection, schedule: Q04DX003 (ip), vehicle: saline) was 120 % of control and the T/C [14] was 118 % of control. For the same compound, the T/C (dose: 25.0 mg/kg/injection, schedule: Q04DX003 (ip), vehicle: saline) was 166 % of control and the T/C (dose: 50.0 mg/kg/injection, schedule: Q04DX003 (ip), vehicle: saline) was 154 % of control.

With `CCOC(=O)CCC(NC(=O)C1CCC(=O)N1)C(=O)OCC` (configuration not stated) ([pGlu]-Glu(OEt)-OEt; configuration not given here) the T/C [4] was 96 % of control, the T/C [5] was 91 % of control and the T/C [6] was 98 % of control.

For `OCC(F)(F)C(F)(F)C(F)(F)F`, the T/C [15] was 104 % of control, the T/C [16] was 90 % of control and the T/C [17] was 90 % of control.

With `COCC12CCC(OC)C34C5CC6(O)C(OC)CC(OC(C)=O)(C5C6OC(=O)c5ccccc5)C(C(OC)C13)C4N(C)C2` (configuration not stated) the T/C (dose: 0.31 mg/kg/injection, schedule: Q01DX009 (ip), vehicle: saline) was 106 % of control, the T/C (dose: 0.62 mg/kg/injection, schedule: Q01DX009 (ip), vehicle: saline) was 101 % of control and the T/C (dose: 1.25 mg/kg/injection, schedule: Q01DX009 (ip), vehicle: saline) was 110 % of control. For the same compound, the T/C (dose: 2.5 mg/kg/injection, schedule: Q01DX009 (ip), vehicle: saline) was 102 % of control and the T/C (dose: 5.0 mg/kg/injection, schedule: Q01DX009 (ip), vehicle: saline) was 108 % of control.

`CCOC(=O)NCC(C)(C)CNC(=O)OCC` was tested, and the T/C (dose: 3.13 mg/kg/injection, schedule: Q01DX009 (ip), vehicle: saline) was 100 % of control, the T/C (dose: 6.25 mg/kg/injection, schedule: Q01DX009 (ip), vehicle: saline) was 105 % of control and the T/C [13] was 105 % of control. The T/C [14] was 103 % of control.

In the case of `CC(=O)CC(=O)N1CCN(C(=O)CC(C)=O)CC1`, the T/C [15] is reported as 104 % of control, the T/C [16] is reported as 100 % of control and the T/C [17] is reported as 100 % of control.

`COC(=O)[C@H]1[C@H]2C[C@@H]3c4[nH]c5ccccc5c4CCN3C[C@H]2C[C@@H](OC(=O)c2cc(OC)c(OC)c(OC)c2)[C@@H]1OC` was tested, and the T/C (dose: 3.13 mg/kg/injection, schedule: Q01DX005 (ip), vehicle: saline with Tween-80) was 105 % of control and 123 % of control, the T/C [11] was 118 % of control (2×) and 124 % of control and the T/C (dose: 12.5 mg/kg/injection, schedule: Q01DX005 (ip), vehicle: saline with Tween-80) was 114 % of control and 118 % of control and 124 % of control. For the same compound, the T/C (dose: 25.0 mg/kg/injection, schedule: Q01DX005 (ip), vehicle: saline with Tween-80) was 111 % of control and 94 % of control and 97 % of control.

`C=C(C)C(=O)O[C@H]1C[C@@]2(C)OC(=CC2=O)/C(CO)=C\[C@H]2OC(=O)C(=C)[C@H]12` was tested, and the T/C (dose: 1.56 mg/kg/injection, schedule: Q01DX009 (ip), vehicle: Klucel (hydroxypropylcellulose) (HPC)) was 108 % of control, the T/C (dose: 3.13 mg/kg/injection, schedule: Q01DX009 (ip), vehicle: Klucel (hydroxypropylcellulose) (HPC)) was 106 % of control and the T/C (dose: 6.25 mg/kg/injection, schedule: Q01DX009 (ip), vehicle: Klucel (hydroxypropylcellulose) (HPC)) was 117 % of control.

For `O=C1OC2(CCCCC2)OC(=O)C1=C/C=C/c1ccc([N+](=O)[O-])o1`, the T/C [12] was 93 % of control, the T/C [7] was 88 % of control and the T/C [8] was 102 % of control. For the same compound, the T/C [9] was 102 % of control and the T/C [10] was 100 % of control.

With `CN(C)CC(O)c1cc2ccccc2c2ccccc12` (configuration not stated) the T/C [13] was 106 % of control, the T/C [14] was 103 % of control and the T/C [18] was 100 % of control.

In the case of `CC(=O)c1c(O)c2ccccc2c2nc3ccccc3nc12`, the T/C [18] is reported as 96 % of control, the T/C [19] is reported as 91 % of control and the T/C [20] is reported as 91 % of control.

With `OCC(O)C(O)C(O)Cc1ccc(O)cc1O` (configuration not stated) the T/C [18] was 98 % of control, the T/C [19] was 106 % of control and the T/C [20] was 104 % of control.

With `CC(Cl)CN(CC(C)Cl)c1ccc2c(c1)Cc1ccccc1-2` (configuration not stated) the T/C (dose: 50.0 mg/kg/injection, schedule: Q01DX009 (ip), vehicle: Klucel (hydroxypropylcellulose) (HPC)) was 122 % of control and the T/C (dose: 100.0 mg/kg/injection, schedule: Q01DX009 (ip), vehicle: Klucel (hydroxypropylcellulose) (HPC)) was 112 % of control.
